In US20070128217A1 (priority 2003, published 2007):

Tests used:
[1] = tested on: rabbit serum obtained by immunizing a rabbit with the SARS-CoV strain Frankfurt 1; assay type: binding; set-up: Binding of a rabbit serum to linear peptides / Binding of a rabbit serum to looped peptides / Rabbit serum linear peptides / Rabbit serum looped peptides / Binding of a rabbit serum to linear peptides of protein N of SARS-CoV Urbani (Rabbit serum linear peptides) / Binding of a rabbit serum to looped/cyclic peptides of protein N of SARS-CoV Urbani (Rabbit serum looped peptides): unit not given here
[2] = tested on: antibodies in sera from SARS patients (sera 1a, 1b, 2, 6, 37, 62, London, SARS-yellow, SARS-green); assay type: binding, human; set-up: Binding of serum 6 to linear peptides of protein X1 of SARS-CoV Urbani / Binding of serum 37 to linear peptides of protein X1 of SARS-CoV Urbani / Binding of serum 6 to looped/cyclic peptide (PEPSCAN-ELISA) / Binding of serum 37 to looped/cyclic peptide (PEPSCAN-ELISA) / Binding of serum 37 to looped/cyclic peptides of protein X1 of SARS-CoV Urbani / Binding of serum 6 to linear peptides of protein X2 / Binding of serum 37 to linear peptides of protein X2 / Binding of serum 37 to looped/cyclic peptides of protein X2 of SARS-CoV Urbani / Binding of serum 6 to linear peptides of protein M of SARS-CoV Urbani / Binding of serum 37 to linear peptides of protein M of SARS-CoV Urbani / Binding of serum 6 to looped/cyclic peptides of protein M of SARS-CoV Urbani / Binding of serum 37 to looped/cyclic peptides of protein M of SARS-CoV Urbani / Binding of serum 6 to linear peptides of protein X3 of SARS-CoV Urbani / Binding of serum 37 to linear peptides of protein X3 of SARS-CoV Urbani / Binding of serum 37 to looped/cyclic peptides of protein X3 of SARS-CoV Urbani / Binding of serum 6 to linear peptides of protein X4 of SARS-CoV Urbani / Binding of serum 37 to linear peptides of protein X4 of SARS-CoV Urbani / Binding of serum 37 to looped/cyclic peptides of protein X4 of SARS-CoV Urbani / Binding of serum 6 to linear peptides of protein X5 of SARS-CoV Urbani / Binding of serum 37 to linear peptides of protein X5 of SARS-CoV Urbani / Binding of serum 37 to looped/cyclic peptides of protein X5 of SARS-CoV Urbani / Binding of serum 6 to linear peptides of protein N of SARS-CoV Urbani / Binding of serum 37 to linear peptides of protein N of SARS-CoV Urbani / Binding of serum 6 to linear peptide (PEPSCAN-ELISA) / Binding of serum 1a to looped/cyclic peptides of protein N of SARS-CoV Urbani / Binding of serum 1b to looped/cyclic peptides of protein N of SARS-CoV Urbani / Binding of serum 2 to looped/cyclic peptides of protein N of SARS-CoV Urbani / Binding of serum 6 to looped/cyclic peptides of protein N of SARS-CoV Urbani / Binding of serum 37 to looped/cyclic peptides of protein N of SARS-CoV Urbani / Binding of serum 62 to looped/cyclic peptides of protein N of SARS-CoV Urbani / Binding of serum London to looped/cyclic peptides of protein N of SARS-CoV Urbani / Binding of serum SARS-green to looped/cyclic peptides of protein N of SARS-CoV Urbani: unit not given here
[3] = tested on: recombinant human anti-SARS-CoV antibody 03-018; assay type: binding; set-up: Binding of antibody 03-018 to linear peptides of the N protein of SARS-CoV Urbani / Binding of antibody 03-018 to looped/cyclic peptides of the N protein of SARS-CoV Urbani: unit not given here
[4] = tested on: control sera (pooled serum of ten healthy LUMC hospital workers; commercial negative donor pooled serum from the Dutch bloodbank); assay type: binding, human; set-up: Binding of Control serum LUMC to linear peptides / Binding of Control serum Blood-bank to linear peptides / Binding of Control serum LUMC to looped peptides / Binding of Control Serum Blood-Bank to Looped peptides / Binding of Control serum LUMC to linear peptides of the protein M of SARS-CoV Urbani / Binding of Control serum Blood-bank to linear peptides of the protein M of SARS-CoV Urbani / Binding of Control serum LUMC to looped peptides of the protein M of SARS-CoV Urbani / Binding of Control Serum Blood-Bank to Looped peptides of the protein M of SARS-CoV Urbani: unit not given here

Sequence	Binding of a rabbit serum to linear peptides of protein N of SARS-CoV Urbani (Rabbit serum linear peptides) [1]	Binding of a rabbit serum to looped/cyclic peptides of protein N of SARS-CoV Urbani (Rabbit serum looped peptides) [1]	Binding of serum 1a to linear peptides of protein N of SARS-CoV Urbani [2]	Binding of serum 1a to looped/cyclic peptides of protein N of SARS-CoV Urbani [2]	Binding of serum 1b to linear peptides of protein N of SARS-CoV Urbani [2]	Binding of serum 1b to looped/cyclic peptides of protein N of SARS-CoV Urbani [2]	Binding of serum 2 to linear peptides of protein N of SARS-CoV Urbani [2]	Binding of serum 2 to looped/cyclic peptides of protein N of SARS-CoV Urbani [2]	Binding of serum 6 to linear peptides of protein N of SARS-CoV Urbani [2]	Binding of serum 6 to looped/cyclic peptides of protein N of SARS-CoV Urbani [2]	Binding of serum 37 to linear peptides of protein N of SARS-CoV Urbani [2]	Binding of serum 37 to looped/cyclic peptides of protein N of SARS-CoV Urbani [2]	Binding of serum 62 to linear peptides of protein N of SARS-CoV Urbani [2]	Binding of serum 62 to looped/cyclic peptides of protein N of SARS-CoV Urbani [2]	Binding of serum London to linear peptides of protein N of SARS-CoV Urbani [2]	Binding of serum London to looped/cyclic peptides of protein N of SARS-CoV Urbani [2]	Binding of serum SARS-green to linear peptides of protein N of SARS-CoV Urbani [2]	Binding of serum SARS-green to looped/cyclic peptides of protein N of SARS-CoV Urbani [2]	Binding of serum SARS-yellow to linear peptides of protein N of SARS-CoV Urbani [2]	Binding of serum SARS-yellow to looped/cyclic peptides of protein N of SARS-CoV Urbani [2]	further results
LLNKHIDAYKTFPPT	0.2	0.4	0.2	0.3	0.1	0.1	0.2	0.3	0.2	0.2	0.7	0.4	0.6	0.3	0.5	0.3	0.5	0.3	0.6	0.4	Binding of antibody 03-018 to linear peptides of the N protein of SARS-CoV Urbani [3]: 0.1; Binding of antibody 03-018 to looped/cyclic peptides of the N protein of SARS-CoV Urbani [3]: 0.2; Control Serum Blood-Bank Looped peptides [4]: 0.5; Control serum Blood-bank linear peptides [4]: 0.6; Control serum LUMC linear peptides [4]: 0.7; Control serum LUMC looped peptides [4]: 0.5
PEASLPYGANKEGIV	0.1	0.2	0.3	0.3	0.1	0.2	0.2	0.4	0.2	0.2	0.7	0.4	0.7	0.3	0.5	0.3	0.3	0.3	0.6	0.2	Binding of antibody 03-018 to linear peptides of the N protein of SARS-CoV Urbani [3]: 0.1; Binding of antibody 03-018 to looped/cyclic peptides of the N protein of SARS-CoV Urbani [3]: 0.2; Binding of Control Serum Blood-Bank to Looped peptides [4]: 0.5; Binding of Control serum Blood-bank to linear peptides [4]: 0.9; Binding of Control serum LUMC to linear peptides [4]: 0.7; Binding of Control serum LUMC to looped peptides [4]: 0.6
